Experiments:
[1] = test system: brain endothelial cells (BECs); experiment: Mitochondrial superoxide (MitoSox) in TNF-α stimulated brain endothelial cells; format: cell-based, mouse; conditions: BECs stimulated by TNF-a (10 ng/ml) for 4 hours, then treated
Method: Next tested was the potential of reparative effects of two non-biologics. One is a triblock biocompatible polymer, known as poloxamers (P188), that was approved by FDA for numerous applications. […] The other compound is N-acetylcysteine (NAC), which is also an FDA-approved antioxidant that is associated with health benefits. […] Using a fluorophore (MitoSox) that preferentially binds to superoxide, the extent of oxidative stress in response to TNF-a were recorded and quantified. Oxidative stress is an important determinant of endothelial injury, which influences a number of cellular responses by activating several intracellular signaling cascades in endothelial cells, leading to the progression of vascular diseases. […] TNF-a induced a significant increase in oxidative stress and, if left untreated, the superoxide level persisted (FIG. 3B). […] This sequence of events may be engineered to accommodate short- and long-term beneficial responses. […]
Measurement of Mitochondrial Reactive Oxygen Species (ROS). Superoxide was measured using a MitoSoX™ Red mitochondrial superoxide indicator, according to the manufacturer's instructions. […] After washing three times with PBS, images were taken with a fluorescent microscope and fluorescence intensities were calculated using Nikon ND2 software.

[2] = Drug encapsulation (loading) efficiency of PLGA NPs; format: physicochemical; conditions: in PLGA NPs
Method: Drug Encapsulation Efficiency. To find the amount of P188 and NAC within the NPs, P188 was fluorescently modified (TAMRA-P188) and loaded into the NPs. Fluorescence intensity of TAMRA-P188 in the supernatant was quantified over time using a plate reader. NAC was measured with high-performance liquid chromatography (HPLC). The results were converted into concentrations, and the loading efficiency for P188 and NAC were 85% and 28%, respectively, and calculated using the following equation.

[3] = In vitro drug release from PLGA NPs; format: physicochemical
Method: In vitro Drug Release. For the release studies, 1 mg each from all prepared NPs were dispersed in 1 ml of release medium (pH 7.4) each to form a suspension. Each suspension was in three replicates in 1.5 ml centrifuge tubes and incubated at 37° C. The release buffers were collected after centrifugation at 15,000 rpm for 30 min. The release buffers were replaced with fresh buffer at different periods and subjected to analysis using HPLC. The cumulative release of the model drug from each loaded NPs was plotted against time.

MMP-9 = MMP-9 enzyme activity assay (EnzChek) in cells exposed to microcavitation; format: cell-based, mouse; conditions: microcavitation (5 blasts), pretreatment 2 h: doxycycline 20 mM, phenanthroline 0.5 mM
Method: (§1) MMPs activities assay, Fold change, and Permeability measurement: EnzChek MMP-2 & 9 Assay Kit were used for MMP-2 & 9 activity assays. Cells were cultured in endothelial cell complete media and divided into the following groups: control (no treatment), exposed (5 blasts), doxycycline (20 mM)+exposed (5 blasts), doxycycline (20 mM), and phenanthroline (0.5 mM, positive control). Before initiating experiments, cells were washed with PBS, and no serum media was applied. Dishes in the treatment groups were pretreated with doxycycline or phenanthroline for 2 h at 37° C. Cells were exposed to microcavitation and incubated at 37° C. for 1 h. All groups were homogenized with lysis buffer containing 0.1% Triton-X 100, and protein was estimated with Pierce BCA Protein Assay Kit. Equal amounts of protein from each sample were aliquoted in lysis buffer. Samples were then analyzed using a plate reader at excitation 495 nm and 515 nm to quantitate MMP-2 & 9 activities. Primary brain endothelial cells were grown under the conditions described above. At the end of all experimental conditions, RNA from the cells was extracted and used for PCR analysis of the MMP-2 & 9 gene expressions. Finally, the permeability of the brain endothelium model exposed to doxycycline, P188, or in combination of them both was measured.

MMP-2 = MMP-2 enzyme activity assay (EnzChek) in cells exposed to microcavitation; format: cell-based, mouse; conditions: microcavitation (5 blasts), pretreatment 2 h: doxycycline 20 mM, phenanthroline 0.5 mM
Method: as §1

loading efficiency [2] [%]	time within which most of the release was achieved [3] [h]	release ([3]; in 7 days) [%]	time required to reach a half of the maximum release ([3]; pH 7.4, 37° C., linear regression) [h]	Compound	superoxide level (oxidative stress) [1]	MMP-9 enzymatic activity (MMP-9)	MMP-2 enzymatic activity (MMP-2)
28	≤ 24	~100	~7.7	CC(=O)N[C@@H](CS)C(=O)O [NAC, N-acetylcysteine]	noticeable attenuation of superoxide		
				c1cnc2c(c1)ccc1cccnc12 [phenanthroline]		inhibited	inhibited
